Key:
EpH4-A6 cells = test: anti-BrdU cytoblot assay (BrdU incorporation); type: cell-based, mouse
Protocol: In order to look for selective inhibitors of cell proliferation dependent on Neu, a chemical library was screened using a cytoblot assay. The ability of small molecules to inhibit cell proliferation at a final concentration of […] determined by the relative incorporation of BrdU into DNA in EpH4-A6 Neu-overexpressing and EpH4-EV control cells.
A modified version of a protocol previously described was used for the cytoblot assay (Stockwell et al. (1999) Chem Biol 6(2), 71-83). Briefly, for this cytoblot assay, 2,000 control (EpH4-EV) and Neu overexpressing (EpH4-A6) cells were seeded in 40 μL of growing medium in duplicate in each well of a white […] plate (Costar). 16,000 compounds from a chemical library (Chembridge) were transferred to each well to a final concentration of 10-15 μM. Plates were incubated at 37° C. with 5% CO2 for 36 hours. BrdU was then added to a final concentration of 20 μM and the cells were incubated at 37° C. with 5% CO2 for an additional 3 hours. Cells were then washed with PBS and fixed with 75% ethanol/25%TBS at 4° C. for 1 hour. DNA denaturation was achieved by incubation with 2M HCl/0.5% Tween-20 for 20 min, followed by neutralization with 2M NaOH in Hank's Balanced Salt Solution (HBSS). Cells were subsequently washed with HBSS, blocked with PBS/0.3% Tween-20/1% BSA (PSTB), and incubated with 0.5 μg/mL of mouse anti-BrdU antibody (PharMingen) and 1:5,000 dilution of anti-mouse IgG coupled to HRP in PBSTB for 1 hour at room temperature. Finally the cells were washed with PBS and 20 μL of 1:1 mix of the enhanced chemiluminescence reagent (Pierce) was then added to each well of a plate. In every case addition of reagents was done using a mutli-drop 384 liquid dispenser (Labsystems) and the washes using a plate washer (Bio-Tek Instruments). Chemiluminescent signal from each plate was detected by autoradiograph and multilabel counter Victor^2 (Wallac) in order to quantitate results. A control cytoblot using inhibitory anti-Neu monoclonal antibodies was performed following the same procedure with the exception that anti-Neu antibody was added to the medium at a final concentration of 20 μg/mL.
The potency of these 55 small molecules was then evaluated at lower concentrations, i.e., at 10 μM and 1 μM using the cytoblot assay described above. […] These six compounds are referred to as E20 (ID 141525); F12 (ID 120590); F16 (ID 274873); H10 (ID 120670); J6 (ID 120856); N12 (ID 215015), and their structure is shown in FIGS. 2 A-F, respectively. […] These two compounds are referred to as L4 (ID 121113); B15(ID217496) […]. FIGS. 2 A-H also show proton NMR spectra of each of the molecules that confirmed their identity. […]

BT474 = test: cell count proliferation assay; type: cell-based; design: key: +: A positive scoring in these Tables represent cells in which a 2-5 and a 10-40 fold reduction in the total number of cells relative to the control untreated cells was observed after 3 and 7 days of culture with F16, respectively; conditions: BT474, human breast; F16 3 μM, cells counted after 3 and 7 days
A6 cells = test: electron-microscopy analysis of mitochondria; type: cell-based, mouse; conditions: 3 μM F16, abnormalities evident as early as 15 hr
Protocol: Electron-microscopy analysis was performed on untreated or F16-treated A6 cells, control cells and tumor cell lines SH1.1 and SMF to search for potential mitochondria lesions due to F16 accumulation. Cells grown in 35 mm dishes were left untreated or treated with 3 μM F16 for the indicated times, and fixed for 1 hr at room temperature in 0.1 M Cacodylate buffer containing 1.25% formaldehyde, 2.5% glutaraldehyde and 0.3% picric acid. Samples were then treated with 1% osmiuntetroxide/1.5% potassiumferrocyanide, followed by 1% uranyl acetate, dehydrated and epon-araldite embedded. Ultrathin sections were examined using a JEOL 1200EX microscope.

[1] = tested on: isolated mouse liver mitochondria; test: mitochondrial oxygen consumption (Clarke-type oxygen electrode); type: biochemical
Protocol: Mitochondria were isolated from liver of Balb/c7 mice by standard differential centrifugation, and resuspended in isolation buffer (0.2 M sucrose, 10 mM Tris-MOPS pH 7.4, 0.1 mM EGTA-Tris, 0.1% delipidated BSA) (Costantini et al. (1995) Toxicology (99) 77-88). Protein concentration was determined by Bradford assay. For swelling determination, changes in side scatter at 545±2.5 nm of a 0.5 mg/ml suspension of mitochondria in experimental buffer (125 mM KCl, 10 mM Tris-MOPS pH 7.4, 1 mM Pi, 5 mM glutamate, 2.5 mM malate, 10 μM EGTA-Tris, pH 7.4) were monitored by using LS-50B spectrofluorimeter. To monitor changes in mitochondrial membrane potential, the intrinsic potentiometric properties of F16 were used. Mitochondria (0.5 mg/ml) were incubated in experimental buffer with the indicated concentrations of F16 and changes in F16 fluorescence intensity were measured, using a LS-50B spectrofluorimeter at 25° C., with excitation and emission wavelengths set at 415±2.5 nm and 520±5 nm, respectively. […]
The mechanism of PTP induction by F16 was further investigated as follows. […] First, the effects of F16 were measured on basal (state 4) and uncoupled mitochondrial respiration as follows. Oxygen consumption was determined using a Clarke-type oxygen electrode equipped with thermostatic control and magnetic stirring. […]

`C[n+]1ccc(/C=C/c2c[nH]c3ccccc23)cc1.[I-]` [F16] was tested, and the “score in anti-BrdU cytoblot” value (EpH4-A6 cells; EpH4-A6 cells at 10 μM) was “positive”, the “concentration up to which anti-proliferative activity is retained” value (EpH4-A6 cells; EpH4-A6 cells, concentrations from 100 to 0.01 μM, FIG. 3) was 100 nM and the “concentration at which F16 is effective / partially inhibits BrdU incorporation (as low as)” value (EpH4-A6 cells; EpH4-A6 cells, cytoblot) was 10 nM. The “concentration at which anti-proliferative activity was shown (as low as)” value (EpH4-A6 cells; EpH4-A6 cells, cytoblot) was 1 µM, the F16 response (BT474) was “+” and the mitochondrial ultrastructure (A6 cells) was “progressive swelling and disruption of mitochondrial integrity”. For the same molecule, the uncoupled mitochondrial respiration [1] was “inhibits uncoupled respiration” and the “state 4 (basal) mitochondrial oxygen consumption” value ([1]; substrates for complexes I and II+III) was “increase in state 4 of mitochondrial oxygen consumption”.

From patent US20040097408A1, “Compounds regulating cell proliferation and differentiation” (priority 2001, published 2004)
